Measurements reported in PubChem BioAssay (NCI).
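Test compounds were applied to cells in 96-well plates for 48 hours at 5 doses. At the GI50, growth is halved. TGI: concentration producing complete growth inhibition.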

What was measured:
Test in all cases: inhibition of tumour cell growth, NCI panel, 48 h
[1] = test system: HCC-2998 colon
[2] = test system: EKVX NSCLC
[3] = test system: TK-10 renal
[4] = test system: SNB-75 CNS
[5] = test system: HT29 colon
[6] = test system: NCI/ADR-RES ovarian
[7] = test system: MOLT-4 leukemia
[8] = test system: IGROV1 ovarian
[9] = test system: NCI-H460 lung
[10] = test system: MALME-3M melanoma
[11] = test system: SF-268 CNS
[12] = test system: NCI-H226 lung
[13] = test system: OVCAR-4 ovarian
[14] = test system: HS 578T breast
[15] = test system: SK-MEL-5 melanoma
[16] = test system: SNB-19 CNS
[17] = test system: MDA-MB-435
[18] = test system: UACC-257 melanoma
[19] = test system: OVCAR-5 ovarian
[20] = test system: NCI-H23 lung
[21] = test system: MDA-MB-231 breast
[22] = test system: KM12 colon
[23] = test system: CAKI-1 renal
[24] = test system: HOP-62 NSCLC
[25] = test system: HL-60(TB) leukemia
[26] = test system: SK-MEL-28 melanoma
[27] = test system: PC-3 prostate
[28] = test system: UO-31 renal
[29] = test system: M14 melanoma
[30] = test system: A549 NSCLC
[31] = test system: U251 CNS
[32] = test system: SR leukemia
[33] = test system: BT-549 breast
[34] = test system: SF-539 CNS
[35] = test system: CCRF-CEM leukemia
[36] = test system: SK-OV-3 ovarian
[37] = test system: K-562 leukemia
[38] = test system: SW-620 colon
[39] = test system: T-47D breast
[40] = test system: SF-295 CNS
[41] = test system: OVCAR-3 ovarian
[42] = test system: OVCAR-8 ovarian
[43] = test system: COLO 205 colon
[44] = test system: 786-0 renal
[45] = test system: A498 renal
[46] = test system: LOX IMVI melanoma
[47] = test system: RPMI-8226 leukemia
[48] = test system: MCF7 breast
[49] = test system: HCT-116 colon
[50] = test system: HCT-15 colon
[51] = test system: ACHN renal
[52] = test system: RXF 393 renal
[53] = test system: DU-145 prostate
[54] = test system: HOP-92 NSCLC
[55] = test system: NCI-H522 lung
[56] = test system: SK-MEL-2 melanoma

Work on `COC(=O)[C@]12CC[C@@H](C)[C@H](C)[C@@H]1C1=CC[C@@H]3[C@@]4(C)C[C@@H](OC(C)=O)[C@H](O)[C@@](C)(CO)[C@@H]4[C@H](O)C[C@@]3(C)[C@]1(C)CC2` yielded a GI50 [1] of 12 µM, a TGI [1] of 26.7 µM and a GI50 [2] of 10.5 µM. For the same compound, the TGI [2] was 24.6 µM, the GI50 [3] was 15 µM and the TGI [3] was 29 µM. The GI50 [4] was 10.2 µM, the TGI [4] was 23.1 µM and the GI50 [5] was 5.79 µM. It also gave a TGI [5] of 20.4 µM, a GI50 [6] of 13.2 µM and a TGI [6] of 29.5 µM. For the same compound, the GI50 [7] was 5.82 µM, the TGI [7] was 22 µM and the GI50 [8] was 8.87 µM. The TGI [8] was 24.8 µM, the GI50 [9] was 10.6 µM and the TGI [9] was 26.3 µM. The GI50 [10] was 17.2 µM, the TGI [10] was 33 µM and the GI50 [11] was 10.8 µM. The TGI [11] was 28.2 µM, the GI50 [12] was 16.3 µM and the TGI [12] was 38.2 µM. It also gave a GI50 [13] of 12 µM, a TGI [13] of 27 µM and a GI50 [14] of 11.9 µM. The TGI [14] was 29.6 µM, the GI50 [15] was 12.9 µM and the TGI [15] was 26 µM. For the same compound, the GI50 [16] was 14.3 µM, the TGI [16] was 31.3 µM and the GI50 [17] was 12.6 µM. It also gave a TGI [17] of 26 µM, a GI50 [18] of 13.4 µM and a TGI [18] of 28.1 µM. It also gave a GI50 [19] of 13.2 µM, a TGI [19] of 27.7 µM and a GI50 [20] of 13.6 µM. The TGI [20] was 30 µM, the GI50 [21] was 8.95 µM and the TGI [21] was 23.4 µM. It also gave a GI50 [22] of 9.95 µM, a TGI [22] of 26.7 µM and a GI50 [23] of 10.1 µM. The TGI [23] was 21.9 µM, the GI50 [24] was 14.7 µM and the TGI [24] was 29.5 µM. It also gave a GI50 [25] of 13.9 µM, a TGI [25] of 31.6 µM and a GI50 [26] of 13 µM. For the same compound, the TGI [26] was 28.6 µM, the GI50 [27] was 7.53 µM and the TGI [27] was 20.5 µM. For the same compound, the GI50 [28] was 3.58 µM, the TGI [28] was 17.1 µM and the GI50 [29] was 8.14 µM. For the same compound, the TGI [29] was 22.2 µM, the GI50 [30] was 6.39 µM and the TGI [30] was 20.8 µM. It also gave a GI50 [31] of 10.7 µM, a TGI [31] of 23.9 µM and a GI50 [32] of 7.62 µM. For the same compound, the TGI [32] was 25.5 µM, the GI50 [33] was 15 µM and the TGI [33] was 29.8 µM. It also gave a GI50 [34] of 14.8 µM, a TGI [34] of 29.4 µM and a GI50 [35] of 12.8 µM. The TGI [35] was 36.5 µM, the GI50 [36] was 16.6 µM and the TGI [36] was 30.7 µM. The GI50 [37] was 9.18 µM, the TGI [37] was 27.4 µM and the GI50 [38] was 16 µM. For the same compound, the TGI [38] was 35.6 µM, the GI50 [39] was 12.4 µM and the TGI [39] was 28.7 µM. For the same compound, the GI50 [40] was 11.6 µM, the TGI [40] was 25.1 µM and the GI50 [41] was 13.4 µM. The TGI [41] was 29.9 µM, the GI50 [42] was 12.2 µM and the TGI [42] was 30.4 µM. It also gave a GI50 [43] of 11.6 µM, a TGI [43] of 25.9 µM and a GI50 [44] of 14.5 µM. It also gave a TGI [44] of 29.8 µM, a GI50 [45] of 11.9 µM and a TGI [45] of 24.7 µM. For the same compound, the GI50 [46] was 10.4 µM, the TGI [46] was 23.6 µM and the GI50 [47] was 7.86 µM. It also gave a TGI [47] of 31.7 µM, a GI50 [48] of 4.95 µM and a TGI [48] of 20.9 µM. The GI50 [49] was 11.8 µM, the TGI [49] was 25.4 µM and the GI50 [50] was 7.74 µM. The TGI [50] was 22.9 µM, the GI50 [51] was 10.4 µM and the TGI [51] was 24.5 µM. For the same compound, the GI50 [52] was 11 µM, the TGI [52] was 26.4 µM and the GI50 [53] was 13 µM. For the same compound, the TGI [53] was 26.4 µM, the GI50 [54] was 11.3 µM and the TGI [54] was 24.3 µM. For the same compound, the GI50 [55] was 11.2 µM, the TGI [55] was 26.2 µM and the GI50 [56] was 17.7 µM. It also gave a TGI [56] of 34.1 µM.
